Laboratory results reported in US5981583A (priority 1997, dated 1999).
Like-named read-outs stand apart in the source and are kept apart here.

Columns and labels:
Oct-1 = type: cell-based; details: 25 μg/ml, 2 hours
IκBa [1] = type: cell-based, human
TFII D = type: cell-based; details: 25 μg/ml, 2 hours
NF-κB [2] = type: cell-based, human
NF-κB [3] = type: cell-based, human; remark: listed apart in the source
AP-1 = type: cell-based; details: 25 μg/ml, 2 hours
in vitro [4] = details: human, u937 cells
p65 [5] = type: cell-based, human
NF-κB [6] = type: biochemical, human
p50 = type: cell-based
NF-κB [7] = type: cell-based
p65 [8] = type: cell-based, human; remark: listed apart in the source
[9] = tested on: IκBa promoter linked to the CAT gene; type: cell-based
in vitro [10] = assay: in vitro
IκBa [11] = type: cell-based, human; remark: listed apart in the source
NF-κB [12] = type: cell-based, human; remark: listed apart in the source
NF-κB [13] = type: cell-based, human; remark: listed apart in the source
NF-κB [14] = type: biochemical
NF-κB [15] = type: cell-based, human; remark: listed apart in the source
c-Rel = type: cell-based
NF-κB [16] = type: cell-based; remark: listed apart in the source

## O=C(/C=C/c1ccc(O)c(O)c1)OCCc1ccccc1 [CAPE, caffeic acid (3,4-dihydroxy cinnamic acid) phenethyl ester]
Oct-1
  DNA-binding ability of Oct-1: did not inhibit
IκBa [1]
  TNF-induced rate of degradation of IκBa: did not affect significantly
  cytoplasmic pool of IκBa, substance alone: no effect
  resynthesis of IκBa after TNF: did delay its resynthesis
TFII D
  DNA-binding ability of TFII D: did not inhibit
NF-κB [2]
  activation of NF-κB induced by H2O2: completely blocked
  activation of NF-κB induced by ceramide: completely blocked
  activation of NF-κB induced by okadaic acid: completely blocked
  activation of NF-κB induced by phorbol myristate acetate: completely blocked
NF-κB [3]
  CAPE-induced inhibition of NF-κB activation in the presence of reducing agents: reversed completely
  activation of NF-κB by the substance alone: No activation
  concentration with maximum effect on TNF-dependent activation of NF-κB: 25 µg/mL
  inhibition of TNF-dependent activation of NF-κB: inhibited the TNF-dependent activation of NF-κB in a dose-dependent manner
  kinetics of inhibition of TNF response: cotreatment with TNF: not effective
  kinetics of inhibition of TNF response: pretreatment: inhibited only when the cells were pretreated
AP-1
  DNA-binding ability of AP-1: did not inhibit
In vitro [4]
  viability: > 98%
p65 [5]
  TNF-induced appearance of p65 in the nucleus: blocked
  cytoplasmic pool of p65: none of the treatments altered significantly
NF-κB [6]
  binding of NF-κB to DNA, deoxycholate-treated cytoplasmic extracts: interfered with the binding of NF-κB proteins to DNA
  binding of NF-κB to DNA, nuclear extracts from TNF-preactivated cells: prevented NF-κB from binding to DNA

## COc1cc(CNC(=O)CCCCC=CC(C)C)ccc1O [capsaicin, 8-methyl-N-vanillyl-6-nonenamid]
p50
  level of p50 protein in cytosolic fraction: neither capsaicin by itself or in combination with TNF had any effect
NF-κB [7]
  concentration with almost complete inhibition of TNF-induced NF-κB: 200 µM
p65 [8]
  TNF-induced migration of p65 into the nucleus: did block the TNF-induced migration
  level of cytoplasmic p65, capsaicin alone: remained unaffected
  migration of p65 protein into the nucleus, capsaicin by itself: did not induce this migration
[9]
  TNF-enhanced CAT activity, pIκBCAT-transfected cells: reduced significantly
In vitro [10]
  viability at 2 h, 100 µM: 99%
  viability at 2 h, 200 µM: 98%
  viability at 2 h, 300 µM: 95%
IκBa [11]
  TNF-mediated degradation of IκBa: abolished
  appearance of TNF-mediated slower-migrating band of IκBa: abolished
  level of cytoplasmic IκBa, capsaicin alone: remained unaffected
NF-κB [12]
  concentration with almost complete inhibition of TNF-induced NF-κB: 200 µM
NF-κB [13]
  NF-κB activation mediated through okadaic acid: inhibited only partially
  phorbol myristate acetate-induced activation of NF-κB: completely blocked
NF-κB [14]
  ability of NF-κB to bind to the DNA, deoxycholate-treated cytoplasmic extracts from capsaicin-exposed cells: did not modify
  ability of NF-κB to bind to the DNA, nuclear extracts exposed to capsaicin after TNF treatment: did not modify
NF-κB [15]
  NF-κB activation on co-incubation with TNF: did not block NF-κB activation
  activation of NF-κB by 10 nM TNF: completely inhibited
  activation of NF-κB by the substance itself: did not activate NF-κB
  concentration that inhibited most of the activation induced by TNF: 200 to 300 µM
  pre-incubation time for maximum inhibition of the response to TNF: 120 min
c-Rel
  level of c-Rel protein in cytosolic fraction: neither capsaicin by itself or in combination with TNF had any effect

## O=C(C=Cc1cc(O)ccc1O)OCCc1ccccc1 [compound 1]
NF-κB [3]
  activity in inhibiting NF-κB activation relative to CAPE: as active as CAPE
  effect of CAPE analogues on TNF-induced NF-κB activation: increased the potency of inhibition

## COc1ccc(C=CC(=O)OCCc2ccccc2)cc1OC [compound 2]
NF-κB [3]
  activity in inhibiting NF-κB activation relative to CAPE: less active than CAPE

## O=C(C=Cc1ccc(O)c(O)c1O)OCCc1ccccc1 [compound 3]
NF-κB [3]
  activity in inhibiting NF-κB activation relative to CAPE: less active than CAPE
  effect of CAPE analogues on TNF-induced NF-κB activation: loss of potency

## O=C(C=Cc1ccc(O)c(O)c1)OCCCc1ccccc1 [compound 4]
NF-κB [3]
  activity in inhibiting NF-κB activation relative to CAPE: less active than CAPE
  effect of CAPE analogues on TNF-induced NF-κB activation: significant loss of inhibition

## C=C(C)[C@]12C[C@@H](C)[C@@]34O[C@](Cc5ccccc5)(O[C@@H]1[C@@H]3C=C(COC(=O)Cc1ccc(O)c(OC)c1)C[C@]1(O)C(=O)C(C)=C[C@@H]41)O2 [resiniferatoxin]
NF-κB [16]
  TNF-mediated activation of NF-κB: completely inhibited
  activation of NF-κB by the substance itself: did not activate NF-κB
  concentration sufficient for maximum inhibition of the TNF response: 40 µM
  potency relative to capsaicin: approximately 8 fold
